Biological target: Histone-lysine N-methyltransferase EZH2 [Y641F] (Homo sapiens, UniProt Q15910, Y641F)
Experiment: In Vitro Methyltransferase Activity Assay
Protocol: Recombinant PRC2 (EZH2-Y641F) was purchased from Active motif, S-adenosyl-methionine (SAM) and Poly-L-lysine (PLL) were purchased from Sigma-Aldrich, and H3(1-50)K27me1 peptide was purchased from Cisbio. LANCEUltrasystem (Perkinelmer) was used for detection system. In the enzyme activity test, compounds to be tested were diluted by 8 gradient points in a ratio of 1:3, and added into each well in a reaction plate, and 100 ng recombinase was added, followed by a buffer [20 mM Tris pH8.5, 2 mM MgCl2, 0.01% Tween-20, 1 mM TCEP] containing 2.5 uM SAM/250 nM H3 (1-50)K27me1 premixtures. Enzymatic reaction thus began at room temperature. After reacted for 3 hours, a detection solution premixed with PLL, detection antibody and Ulight was added, and reacted for 1 hour at room temperature. The fluorescence value was then read on a Tecan infinite pro. IC50 was calculated by fitting in a four-factor model in the XLfit software.

Chain of Histone-lysine N-methyltransferase EZH2 [Y641F] (Q15910 whole entry Y641F): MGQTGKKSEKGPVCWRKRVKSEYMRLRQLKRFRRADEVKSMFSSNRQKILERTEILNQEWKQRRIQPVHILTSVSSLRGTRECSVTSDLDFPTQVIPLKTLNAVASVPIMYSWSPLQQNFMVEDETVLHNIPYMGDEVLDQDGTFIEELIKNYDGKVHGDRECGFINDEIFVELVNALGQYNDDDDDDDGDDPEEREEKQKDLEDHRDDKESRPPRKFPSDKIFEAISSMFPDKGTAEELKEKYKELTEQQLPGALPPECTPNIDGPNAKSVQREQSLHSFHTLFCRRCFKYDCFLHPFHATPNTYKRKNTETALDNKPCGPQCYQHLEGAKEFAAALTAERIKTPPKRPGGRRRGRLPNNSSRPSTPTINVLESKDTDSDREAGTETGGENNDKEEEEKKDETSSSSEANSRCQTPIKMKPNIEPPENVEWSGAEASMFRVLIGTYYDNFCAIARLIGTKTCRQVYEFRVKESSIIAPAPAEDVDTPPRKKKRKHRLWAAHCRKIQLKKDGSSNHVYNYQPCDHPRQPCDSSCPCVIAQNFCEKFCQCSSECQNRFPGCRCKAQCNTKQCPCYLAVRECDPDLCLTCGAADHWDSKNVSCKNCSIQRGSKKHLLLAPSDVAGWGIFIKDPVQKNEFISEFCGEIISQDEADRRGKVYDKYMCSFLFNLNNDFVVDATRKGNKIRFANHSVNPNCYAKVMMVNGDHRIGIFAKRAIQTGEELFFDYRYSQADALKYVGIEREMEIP

CCN(c1c(C)c(C(=O)NCc2c(C)cc(C)[nH]c2=O)cc2c1cnn2C)C1CCOCC1 [US11104664, Compound P-7]
IC50: 12 nM

— BindingDB's records for patent US11104664 (Yangtze River Pharmaceutical Group Co., 2021)
